Measurements from publication PMC11480511 (Scientific Reports, 2024).
Values after ≈ are worked out from the molar mass of the structure shown. Read-outs that look alike come from different tables or passages of the source.

Experiments:
MDA-MB231 = experiment: NCI single-dose growth inhibition screen; type: cell-based; conditions: Homo sapiens, MDA-MB-231; Breast Cancer MDA-MB231; single dose 10^−5 M
[1] = tested on: K. pneumoniae ATCC 10,031; experiment: Antibacterial screening, agar cup diffusion method; type: cell-based; conditions: read-out: Minimum inhibitory concentrations (MIC, µM) K. pneumoniae ATCC 10,031
Procedure: (§1) Anti-bacterial activity of the recently synthesized compounds 3a-k was evaluated at AUMC (Assiut University Mycological Centre), Assiut, Egypt. Assays were done against Gram-negative strains of K. pneumoniae (ATCC 100310, E. coli (ATCC 25922), Pseudomonas aeruginosa (ATCC 27853) and the Gram-positive S. aureus (ATCC 6538) strain utilizing standard agar cup diffusion method. The isolates from the four bacterial species examined were kept in TSB (Trypticase Soya Broth, Becton and Dickinson) with 10% glycerol at -70 °C and then subcultured on TSA (Trypticase Soya Agar, Becton and Dickinson) and TSB for 24 h at 37 °C former to inoculation. Bacterial isolates were then plated on sterile petri plates with 1 × 10^8 CFU/mL (0.5 McFarland turbidity) and 20 mL of Mueller Hinton Agar media (Oxoid) was then loaded. To ensure that the microorganisms were evenly dispersed, the plates were gently rotated before being left to harden on a level surface. Four equally spaced spherical-shaped wells (10 mm diameter) were painstakingly drilled using a sterilized cork bore after media solidification. All tested compounds under test underwent two-fold serial dilutions in a sequential manner. Three replications of 100 µL of each concentration were added to a well using a micropipette. Plates were then incubated for 24-hour at 37 °C. The average of the inhibition zones was then calculated. To determine the MICs, the natural logarithm of each diluted test substance’s concentration was plotted against the average area of the related inhibition zone. Following that, a regression line was created and the intercept on the ‘ln concentration” axis was determined, and the antilogarithm was calculated to indicate the MIC value[34],[63].

MDA-MB-468 = experiment: NCI single-dose growth inhibition screen; type: cell-based; conditions: Homo sapiens; Breast Cancer MDA-MB-468; single dose 10^−5 M
CAKI-1 = experiment: NCI single-dose growth inhibition screen; type: cell-based; conditions: Homo sapiens; Renal Cancer CAKI-1; single dose 10^−5 M
[2] = tested on: P. aeruginosa ATCC 27,853; experiment: Antibacterial screening, agar cup diffusion method; type: cell-based; conditions: Pseudomonas aeruginosa, ATCC27; Gram –ve strain; read-out: Minimum inhibitory concentrations (MIC, µM) P. aeruginosa ATCC 27,853
PC-3 = experiment: NCI single-dose growth inhibition screen; type: cell-based; conditions: Homo sapiens; Prostate Cancer PC-3; single dose 10^−5 M
MALME-3 M = experiment: NCI single-dose growth inhibition screen; type: cell-based; conditions: Homo sapiens; Melanoma MALME-3 M; single dose 10^−5 M
SR = experiment: NCI single-dose growth inhibition screen; type: cell-based; conditions: Homo sapiens; Leukemia SR; single dose 10^−5 M
K-562 = experiment: NCI single-dose growth inhibition screen; type: cell-based; conditions: Homo sapiens, K562; Leukemia K-562; single dose 10^−5 M
S. aureus ATCC 6538 = experiment: Antibacterial screening, agar cup diffusion method; type: cell-based; conditions: Staphylococcus aureus, ATCC6538; Gram + ve strain; read-out: Minimum inhibitory concentrations (MIC, µM) S. aureus ATCC 6538
Procedure: as §1

NCI-H522 = experiment: NCI single-dose growth inhibition screen; type: cell-based; conditions: Homo sapiens; Non-Small Cell Lung Cancer NCI-H522; single dose 10^−5 M
A498 = experiment: NCI single-dose growth inhibition screen; type: cell-based, human; conditions: Homo sapiens, A498, Renal Cancer A498; single dose 10^−5 M
UACC-62 = experiment: NCI single-dose growth inhibition screen; type: cell-based; conditions: Homo sapiens; Melanoma UACC-62; single dose 10^−5 M
OVCAR-4 = experiment: NCI single-dose growth inhibition screen; type: cell-based; conditions: Homo sapiens; Ovarian Cancer OVCAR-4; single dose 10^−5 M
NCI-H23 = experiment: NCI single-dose growth inhibition screen; type: cell-based; conditions: Homo sapiens; Non-Small Cell Lung Cancer NCI-H23; single dose 10^−5 M
SK-MEL-5 = experiment: NCI single-dose growth inhibition screen; type: cell-based, human; conditions: Homo sapiens, SK-MEL-5, Melanoma SK-MEL-5; single dose 10^−5 M
MOLT-4 = experiment: NCI single-dose growth inhibition screen; type: cell-based; conditions: Homo sapiens; Leukemia MOLT-4; single dose 10^−5 M
T-47D = experiment: NCI single-dose growth inhibition screen; type: cell-based; conditions: Homo sapiens, T47D; Breast Cancer T-47D; single dose 10^−5 M
OVCAR-8 = experiment: NCI single-dose growth inhibition screen; type: cell-based; conditions: Homo sapiens; Ovarian Cancer OVCAR-8; single dose 10^−5 M
RPMI-8226 = experiment: NCI single-dose growth inhibition screen; type: cell-based; conditions: Homo sapiens; Leukemia RPMI-8226; single dose 10^−5 M
BT-549 = experiment: NCI single-dose growth inhibition screen; type: cell-based; conditions: Homo sapiens; Breast Cancer BT-549; single dose 10^−5 M
LOX IMVI = experiment: NCI single-dose growth inhibition screen; type: cell-based, human; conditions: Homo sapiens, LOX IMVI, Melanoma LOX IMVI; single dose 10^−5 M
EKVX = experiment: NCI single-dose growth inhibition screen; type: cell-based; conditions: Homo sapiens; Non-Small Cell Lung Cancer EKVX; single dose 10^−5 M
ACHN = experiment: NCI single-dose growth inhibition screen; type: cell-based; conditions: Homo sapiens; Renal Cancer ACHN; single dose 10^−5 M
NCI-H460 = experiment: NCI single-dose growth inhibition screen; type: cell-based; conditions: Homo sapiens; Non-Small Cell Lung Cancer NCI-H460; single dose 10^−5 M
SNB-19 = experiment: NCI single-dose growth inhibition screen; type: cell-based; conditions: Homo sapiens; CNS Cancer SNB-19; single dose 10^−5 M
CCRF-CEM = experiment: NCI single-dose growth inhibition screen; type: cell-based; conditions: Homo sapiens; Leukemia CCRF-CEM; single dose 10^−5 M
SNB-75 = experiment: NCI single-dose growth inhibition screen; type: cell-based, human; conditions: Homo sapiens, SNB-75, CNS Cancer SNB-75; single dose 10^−5 M
DU-145 = experiment: NCI single-dose growth inhibition screen; type: cell-based; conditions: Homo sapiens; Prostate Cancer DU-145; single dose 10^−5 M
NCI-H322M = experiment: NCI single-dose growth inhibition screen; type: cell-based; conditions: Homo sapiens; Non-Small Cell Lung Cancer NCI-H322M; single dose 10^−5 M
MDA-MB-435 = experiment: NCI single-dose growth inhibition screen; type: cell-based; conditions: Homo sapiens; Melanoma MDA-MB-435; single dose 10^−5 M
SF-268 = experiment: NCI single-dose growth inhibition screen; type: cell-based; conditions: Homo sapiens; CNS Cancer SF-268; single dose 10^−5 M
SK-MEL-28 = experiment: NCI single-dose growth inhibition screen; type: cell-based; conditions: Homo sapiens; Melanoma SK-MEL-28; single dose 10^−5 M
[3] = Klebsiella pneumoniae, ATCC10, Gram –ve strain

SMILES | inhibition at 10 µM (MDA-MB231) | MIC [1, 3] | inhibition at 10 µM (MDA-MB-468) | inhibition at 10 µM (CAKI-1) | melting point | MIC [2] | inhibition at 10 µM (PC-3) | inhibition at 10 µM (MALME-3 M) | inhibition at 10 µM (SR) | inhibition at 10 µM (K-562) | MIC (S. aureus ATCC 6538) | inhibition at 10 µM (NCI-H522) | inhibition at 10 µM (A498) | inhibition at 10 µM (UACC-62) | inhibition at 10 µM (OVCAR-4) | inhibition at 10 µM (NCI-H23) | inhibition at 10 µM (SK-MEL-5) | inhibition at 10 µM (MOLT-4) | inhibition at 10 µM (T-47D) | inhibition at 10 µM (OVCAR-8) | further results
COc1ccc(/C=C2\SC(=O)N(CCCC(=O)N3CCN(c4cc5c(cc4F)c(=O)c(C(=O)O)cn5C4CC4)CC3)C2=O)cc1OC [3f] | 0.1% | > 20 µM | < 0% | 1.7% | 241 °C | > 20 µM | < 0% | 5.9% | 19.5% | 1.1% | > 20 µM | 7.8% | 15.5% | 1.4% | < 0% | < 0% | 1.9% | 7.2% | 0.9% | 2.9% | inhibition at 10 µM (RPMI-8226): < 0%; inhibition at 10 µM (BT-549): 3.4%; inhibition at 10 µM (LOX IMVI): 2.4%; inhibition at 10 µM (EKVX): 10.6%; inhibition at 10 µM (ACHN): < 0%; inhibition at 10 µM (NCI-H460): < 0%; inhibition at 10 µM (SNB-19): 0.9%; inhibition at 10 µM (CCRF-CEM): < 0%; inhibition at 10 µM (SNB-75): 4.9%; inhibition at 10 µM (DU-145): < 0%; inhibition at 10 µM (NCI-H322M): 4.2%; inhibition at 10 µM (MDA-MB-435): < 0%; inhibition at 10 µM (SF-268): < 0%; inhibition at 10 µM (SK-MEL-28): < 0%
COc1cc(/C=C2\SC(=O)N(CCCC(=O)N3CCN(c4cc5c(cc4F)c(=O)c(C(=O)O)cn5C4CC4)CC3)C2=O)cc(OC)c1OC [3 g] | < 0% | 0.13 to 0.8 µM (≈ 0.0903 to 0.556 µg/mL) | < 0% | 2.2% | 252 °C | > 20 µM | < 0% | < 0% | 5.4% | < 0% | > 20 µM | 3.3% | 2.3% | 3.7% | < 0% | 2.6% | < 0% | < 0% | < 0% | 1.9% | MIC ([1]; Gram –ve strain): 0.25 µM (≈ 0.174 µg/mL); inhibition at 10 µM (RPMI-8226): < 0%; inhibition at 10 µM (BT-549): < 0%; inhibition at 10 µM (LOX IMVI): 1.8%; inhibition at 10 µM (EKVX): < 0%; inhibition at 10 µM (ACHN): < 0%; inhibition at 10 µM (NCI-H460): < 0%; inhibition at 10 µM (SNB-19): < 0%; inhibition at 10 µM (CCRF-CEM): < 0%; inhibition at 10 µM (SNB-75): 5.9%; inhibition at 10 µM (DU-145): < 0%; inhibition at 10 µM (NCI-H322M): 5.1%; inhibition at 10 µM (MDA-MB-435): < 0%; inhibition at 10 µM (SF-268): 4.4%; inhibition at 10 µM (SK-MEL-28): < 0%
